Positions of bridges follow the written chain, without caps; N, C: chain ends. No end group written: not given here.
Legend:
[1] = system: extracellular domains of the receptors for tumor necrosis factor (TNFR); test: phage binding control, TNFR extracellular domain; conditions: results not shown
chimeric Ig-EPOR protein [2] = target: T1, chimeric Ig-EPOR protein (Homo sapiens, UniProt P19235); test: phage ELISA, relative affinities of binding clones for Ig-EPOR; conditions: optical density per phage at 50% ERB1 maximum response × 1×10^8; ERB1 = standard
T1 construct: a fusion protein having domains corresponding to murine IgG1 and the extracellular domain (ECD) of the human EPOR; made in house; secreted into the medium
T1 sequence (P01868 98-324 partner limits assumed, one chain of several): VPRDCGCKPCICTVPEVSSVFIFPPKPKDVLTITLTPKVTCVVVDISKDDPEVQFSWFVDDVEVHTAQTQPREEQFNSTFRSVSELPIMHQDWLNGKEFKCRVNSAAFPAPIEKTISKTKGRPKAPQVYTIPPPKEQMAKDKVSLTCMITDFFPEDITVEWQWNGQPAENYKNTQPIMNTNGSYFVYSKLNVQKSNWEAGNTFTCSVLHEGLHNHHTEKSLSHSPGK
Experimental: To better characterize the phage isolates having binding specificity for the EPOR, we compared the relative affinities of the binding clones presented in FIG. 4, using a phage ELISA procedure. Phage stocks of the binding clones were titered in triplicate to accurately determine the concentration of pfu/ml for each lysate. Different isolates were then assayed by ELISA using normalized phage concentrations so that all clones were tested using equivalent numbers of phage. Optical densities in the ELISA corresponding to the equivalent of a 50% maximum response in the ERB1 trial were next determined for each of the different phage isolates. […] The normalized relative affinity (“Rel. Aff.”) for each clone is shown to the right of the clone's peptide sequence in FIG. 4.

interleukin-6 (IL-6R) = target: T2, interleukin-6 (IL-6R) (Homo sapiens, UniProt P08887); test: phage binding control, IL-6R extracellular domain; conditions: results not shown
T2 sequence (P08887 20-365 limits assumed): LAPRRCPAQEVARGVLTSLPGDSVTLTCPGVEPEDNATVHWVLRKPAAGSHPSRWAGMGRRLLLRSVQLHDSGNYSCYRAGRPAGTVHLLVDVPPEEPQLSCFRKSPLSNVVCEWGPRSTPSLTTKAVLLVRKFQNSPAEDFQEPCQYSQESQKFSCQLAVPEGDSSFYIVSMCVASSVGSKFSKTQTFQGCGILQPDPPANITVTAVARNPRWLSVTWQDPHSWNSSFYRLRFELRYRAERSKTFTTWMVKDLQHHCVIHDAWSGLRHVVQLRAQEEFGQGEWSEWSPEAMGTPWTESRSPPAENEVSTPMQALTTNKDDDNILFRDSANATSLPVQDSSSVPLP

chimeric Ig-EPOR probe = target: T3, chimeric Ig-EPOR probe (Homo sapiens, UniProt P19235); test: EPOR-specific magnetic bead phage ELISA; type: binding; conditions: anti-M13 detection
T3 construct: a fusion protein having domains corresponding to murine IgG1 and the extracellular domain (ECD) of the human EPOR; made in house; secreted into the medium
T3 sequence (P01868 98-324 partner limits assumed, one chain of several): as the sequence (P01868 98-324 partner limits assumed, one chain of several) above
Experimental: A magnetic bead ELISA protocol was used to verify that the ERB1 phage clone bound to the chimeric Ig-EPOR probe by specific interactions. The chimeric Ig-EPOR probe was bound to magnetic beads displaying rat anti-murine IgG1, substantially as described above. Samples (100 μl) of 1:2 serial dilutions (PBS and 1% BSA) of a phage lysate were combined with the beads, and the phage allowed to bind the immobilized probe for 1 hr at room temperature. Phage used in this procedure were ERB1 and two negative control phage: HPKF, a clone that binds specifically to a commercially obtained anti-IL-8 mAb, and IL6-B26, a clone that binds specifically to a human IL-6 receptor. After removing unbound phage by washing four times with 200 μl aliquots of TBST (25 mM TrisHCl, pH 7.2, 0.15 M NaCl, 0.1% TWEEN® 20), an HRP-conjugated anti-M13 detection antibody (Pharmacia) diluted 1:5,000 in PBS was added. After incubating (1 hr at room temperature), excess detection antibody was removed by washing and 10 μl for each of the washed bead complexes was transferred to microtiter wells (FALCON® 3912, MICROTEST III, Beckton Dickinson, Oxnard, Calif.) that served as reaction vessels. Each well was developed using the TMB peroxidase substrate and the extent of the peroxidase reaction measured spectrophotometrically, as described in Example 4.

TF-1 cells = test: TF-1 cell proliferation assay; type: cell-based, human
Experimental: To evaluate the biological activities of two representative synthetic peptides containing the 12-mer consensus sequence, peptides ERB1-7 and ERB1-8 were tested for their ability to stimulate proliferation of the EPO-responsive cell line (TF-1).
TF-1 cells were propagated in RPMI 1640 containing 10% BCS and 5 ng/ml GM-CSF. […] Also tested as a negative control was an IL-6 peptide having the sequence […] (SEQ ID NO:87). Peptide concentrations were tested over a 1,000-fold concentration range of 0.02 to 20 μM.

[3] = Biacore analysis of binding kinetics of Ig-EPOR; conditions: known affinity values 0.1-1.1×10^−9 k (Karlsson et al.)
Text: Contaminating bands and degradation products on the gel were minimal. […] The Ig-EPOR protein easily was recoverable in microgram amounts using the procedures described above.

chimeric Ig-EPOR protein [4] = target: T4, chimeric Ig-EPOR protein (human; murine, UniProt P19235 25-250); test: peptide inhibition ELISA: Ig-EPOR binding to EPO-coated plates
T4 construct: extracellular domain; Secreted from COS-7 cells transfected with pcDNA3-IgG1-EPOR; major species about 59 kDa; also called IgG-EPOR; chimeric receptor; not shown: hinge region, CH2 and CH3 domains of the murine IgG1 heavy chain
T4 sequence (looked up): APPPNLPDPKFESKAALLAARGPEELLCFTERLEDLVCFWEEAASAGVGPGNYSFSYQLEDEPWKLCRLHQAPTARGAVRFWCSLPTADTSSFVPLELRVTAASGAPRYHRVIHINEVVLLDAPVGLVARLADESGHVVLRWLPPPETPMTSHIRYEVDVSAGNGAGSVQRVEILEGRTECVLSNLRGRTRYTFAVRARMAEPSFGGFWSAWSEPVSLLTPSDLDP
Text: (§1) Thus, the consensus 12-mer peptide sequence given by SEQ ID NO:12 likely was necessary but not sufficient to create synthetic peptides having high affinity for the EPOR.

chimeric Ig-EPOR protein [5] = target: T4, chimeric Ig-EPOR protein; test: peptide inhibition ELISA (Ig-EPOR binding to EPO-coated plates)
Text: as §1

chimeric Ig-EPOR protein [6] = target: T4, chimeric Ig-EPOR protein; test: control in the peptide inhibition ELISA (FIGS. 6 and 7)
Text: Synthetic peptides having the sequences […]-[…] (SEQ ID NO:81), and […]-[…] (SEQ ID NO:82) were synthesized in the cyclic (disulfide-bonded) form using standard procedures (Peninsula Laboratories, Belmont, Calif.).

Q: Which results are given for “DFDVCRRGWVGHCKDWLSDEYASNPSYPVPHSYYLNPP [ERB1]”?
A: binding to extracellular domain of TNFR [1]: did not bind; normalized relative affinity (Rel. Aff.) (chimeric Ig-EPOR protein [2]): 1.0; binding to extracellular domain of IL-6R (interleukin-6 (IL-6R)): did not bind; binding to the Ig-EPOR probe (chimeric Ig-EPOR probe): bound specifically

Q: With “EPO: recombinant human EPO (R & D Systems)” as the molecule, how does the “half maximal response (ED50), TF-1 proliferation” value (TF-1 cells; three days culture) read?
A: 0.05 to 0.1 unit/ml

Q: Which “stimulation of TF-1 cell proliferation” value (TF-1 cells; any tested concentration up to 20 μM) does the source give for “GGAFCEAVGCGPDRNFYGG [IL-6 peptide, reference compound]” here?
A: did not stimulate TF-1 cell proliferation

Q: For “Ig-EPOR: chimeric protein: ligand binding domain of human EPOR and hinge, CH2 and CH3 domains of murine IgG1”, which binding kinetics [3] is on record?
A: in good agreement with known affinity values

B1: 16-mer peptide 7N-2 (peptide)
peptide: EGCRRGWVGQCKAWFN
modifications: disulfide 3-11 (inferred)
notes: N-terminal truncation of ERB1-7
Q: For B1, which IC50 (chimeric Ig-EPOR protein [4]) is on record?
A: ~3.7 µM

B2: 14-mer peptide 7N-4 (peptide)
peptide: CRRGWVGQCKAWFN
modifications: not fully specified (bridges); also: synthesized as (cyclic form there)
notes: as for B1
Q: Does B2 bind (chimeric Ig-EPOR protein [5])?
A: no binding

B3: 15-mer peptide 7N-3 (peptide)
peptide: GCRRGWVGQCKAWFN
modifications: not fully specified (bridges); also: synthesized as (cyclic form there)
notes: as for B1
Q: Does B3 bind (chimeric Ig-EPOR protein [5])?
A: no binding

B4: IL-6 peptide (peptide)
peptide: GGAFCEAVGCGPDRNFYGG
notes: also called irrelevant IL-6 peptide
Q: Does B4 bind (chimeric Ig-EPOR protein [6])?
A: no binding
